Data reported in patent US20250170102A1, “PHARMACEUTICAL COMPOSITION FOR INHIBITING FIBROSIS IN ORGANS” (NAGASAKI UNIVERSITY, priority 2022, published 2025).

Legend:
[1] = test system: partial inferior vena cava ligation model mice (liver fibrosis); assay: Partial inferior vena cava ligation model mice with low-dose losartan treatment; format: in vivo, C57BL/6 mice
Text: C57BL/6 mice (10-week-old, CLEA) were used. All animal experiments were approved by the Institutional Animal Care and Use Committee of Nagasaki University, and carried out in accordance with the institutional guidelines.
IVC was separated and a small tube (0.9 mm diameter) was placed along with the anterior surface of IVC ((B) in FIG. 1). The tube was tightly ligated together with the IVC ((C) in FIG. 1), and immediately after that, the tube was gently removed ((D) in FIG. 1). The abdomen was then closed with a suture of the peritoneal muscle/fascia followed by closure of the skin. Removing the 0.9 mm diameter tube from IVC ligation was expected to reduce the cross-sectional area of IVC by about 80% based on Simonetto et al.
After all procedures, mice were divided into Losartan group (n=6), IVCL group (n=6) and Sham group (n=6). Losartan group was given losartan (FUJIFILM Wako
Pure Chemical Corporation) in their drinking water at a final concentration of 2.3 mg/L, which providing an estimated daily dose of 0.5 mg/kg. IVCL group was given drinking water without addition of any drug. Treatment was continued until the cessation of the experiments. Sham group received a sham operation including all above steps with the exception of partial IVC ligation, and was given drinking water without addition of any drug.
Mice were euthanized 8 weeks postoperatively. Prior to sacrifice, the body weight was measured, and whole blood was collected from IVC and serum was separated. The levels of serum ALT and AST were measured. The suprahepatic IVC was then transected and the liver was perfused with PBS through the portal vein to remove circulating blood and fibrinogen. The spleen and liver were harvested and weighed, and the spleen/body and liver/body weight ratios were calculated. Liver tissues were fixed in 4% paraformaldehyde and embedded into paraffin block. Tissue sections of about 5 um thickness were used for histological analysis.
Liver tissue sections were deparaffinized and rehydrated. Masson's trichrome staining was performed using Trichrome Stain (Masson) Kit (Sigma-Aldrich) according to the manufacturer's instructions, and then observed under an optical microscope (IX71, Olympus).
Immunohistochemistry analysis on the liver tissues was performed to understand the relevant mechanism. Briefly, liver tissue sections were blocked with 10% bovine serum albumin, and then incubated with primary antibodies (Table 1) overnight at 4°° C., followed by incubation with secondary antibodies (Table 2) for 1 hour at room temperature in the dark. Sections were then mounted with medium containing DAPI. Apoptotic cells were detected by the usage of TUNEL staining kit (Abcam, #ab66108) according to the manufacturer's instructions. Briefly, sections were incubated with DNA labeling solution at 37° C. for 60 min, followed by the addition of PI/RNase A solution for 30 min. Immunofluorescences of stained liver tissues were detected using a fluorescence microscope (FV10i, Olympus). For each staining, at least 10 images were taken from randomly selected fields at 60× magnification, and the mean fluorescence intensity was measured by ImageJ software.
All the results were presented as mean±SD. Statistical significance was determined by one-way analysis of variance (ANOVA) followed by Turkey's test. P value <0.05 was accepted as significant. GraphPad Prism 8 software was used for statistical analysis.

[2] = test system: human hepatic stellate cells (HSCs); assay: Ex vivo hydrostatic pressure loading test in human HSCs; format: cell-based; conditions: 10 nM losartan, 50 mmHg hydrostatic pressure 24 hours
Procedure: Primary human HSCs were purchased from ScienCell Research Laboratories. Cells were expanded by using stellate cell medium (ScienCell Research Laboratories) in a humidified incubator under 5% CO2 and 95% air at 37° C. The third passaged cells were used for the following experiments. A pneumatic pressurizing system (Strex. Inc) was used to induce hydrostatic pressure. Briefly, HSCs were seeded in 60-mm diameter culture dishes (5×10^4 cells/dish) and 4-well culture chamber slides (2×10^4 cells/well). Cells were incubated for 3 days to form about 70% confluent, and then half of the culture dishes and slides were randomly selected to be loaded by 50 mmHg hydrostatic pressure for 24 hours, with or without the addition of 10 nM losartan in medium. The inventors used 50 mmHg for experiments based on their preliminary experiments and a previous report (Yoshino et al., Commun Biol 3:152, 2020, Chen et al., Int J Biol Sci 15:2509-2521, 2019). As controls, non-hydrostatic pressure-loaded groups were provided for each of Losartan addition group and non-Losartan addition group. RT-qPCR was performed to evaluate the expression of RHOA, ROCK1, ROCK2, ACTA2, TGFB1, and COL1A1. Briefly, total RNA was isolated from HSCs using Quick-RNA MicoroPrep Kit, and 1.25 μg of RNA was reverse-transcribed using SuperScript VILO cDNA Synthesis Kit (Thermo Fisher Scientific). Quantitative PCR was carried out with SYBR Green real-time PCR Master Mix (Toyobo). The reactions were performed on a CFX96 real-time PCR System (BIO-RAD). The primer sequences are shown below. GAPDH was used for normalization. HSCs were fixed in 4% paraformaldehyde before blocked by 10% bovine serum albumin. After overnight incubation with the primary antibodies, cells were incubated with secondary antibodies for 1 hour at room temperature, and then mounted with medium containing DAPI. F-actin fibers were stained with TRITC-conjugated phalloidin in mounting medium. Immunofluorescences of stained cells were detected using a fluorescence microscope (FV10i, Olympus). For each staining, 10 images were taken from randomly selected fields at 60× magnification, and the mean fluorescence intensity was measured by ImageJ software. Statistical analysis was performed in the same manner as in Example 1.

[3] = test system: UUO-induced renal fibrosis model mice; assay: Unilateral ureteral obstruction (UUO)-induced renal fibrosis model mice with losartan treatment; format: in vivo, C57BL/6 mice; conditions: for body weight: prior to UUO surgery and 1 and 2 weeks post-surgery, among all groups; for level of BUN in serum / level of CRE in serum / swelling of the left kidneys (hydronephrosis) / fibrosis area of kidney (Masson's trichrome staining): 2 weeks after UUO surgery; for level of BUN in serum / level of CRE in serum: compared to control group; for swelling of the left kidneys (hydronephrosis): versus control group; for fibrosis area of kidney (Masson's trichrome staining): versus left kidney of control group (UUO)
Text: C57BL/6 mice (8-week-old, CLEA) were used. The abdomen of mouse was opened under general anesthesia and the left ureter was ligated. The right ureter was not ligated and the right kidney served as a control. The surgical wound was then closed with a single-layer suture of the peritoneum, muscular layer and skin followed by closure of the surgical wound. UUO-induced renal fibrosis model is known to manifest the symptoms of hydronephrosis in the ligated kidney and then develop interstitial fibrosis caused by interstitial deposition of type IV collagen as well as apoptosis of tubular cells at day 3 post-UUO surgery. Post-UUO surgery mice were divided into three groups: low-dose losartan group (1 mg/kg, n=3), high-dose losartan group (3 mg/kg, n=3) and no losartan administration group (n=3). Low-dose losartan group was given losartan (FUJIFILM Wako Pure Chemical Corporation) in their drinking water at a final concentration of 4.6 mg/L, which providing an estimated daily dose of 1 mg/kg. High-dose losartan group was given losartan in their drinking water at a final concentration of 13.8 mg/L, which providing an estimated daily dose of 3 mg/kg. No losartan administration group was given drinking water without addition of losartan. Body weight was measured prior to UUO surgery and 1 and 2 weeks post-surgery. Mice were euthanized 2 weeks post-surgery. Prior to sacrifice, whole blood was collected from IVC and serum was separated. The levels of serum BUN and CRE were measured. The left and right kidneys were then harvested and photographed. Kidneys were fixed in 4% paraformaldehyde and embedded into paraffin block. Tissue sections of about 5 µm thickness were used for histological analysis. (3) Masson's trichrome staining and Hematoxylin and Eosin staining Tissue sections were deparaffinized and rehydrated. Masson's trichrome staining was performed using Trichrome Stain (Masson) Kit (Sigma-Aldrich) according to the manufacturer's instructions. Hematoxylin and Eosin (HE) staining was performed by a conventional method. Tissue specimens were observed under with an optical microscope (IX71, Olympus). Statistical analysis was performed in the same manner as in Example 1.

[4] = test system: acute lung injury caused by mechanical stimulation; conditions: reported in non-patent literature 3; cited from earlier work
[5] = test system: liver fibrosis caused by non-alcoholic steatohepatitis; conditions: rats; reported in non-patent literature 4; cited from earlier work
[6] = losartan 0.5 mg/kg/day in drinking water, 8 weeks after partial IVC ligation, among Sham, IVCL and Losartan groups
[7] = losartan 0.5 mg/kg/day in drinking water, 8 weeks after partial IVC ligation, compared with Sham group
[8] = losartan 0.5 mg/kg/day, 8 weeks, compared to IVCL group
[9] = losartan 0.5 mg/kg/day, 8 weeks, versus upregulation in IVCL group
[10] = compared to pressure-loaded group without losartan

## CCCCc1nc(Cl)c(CO)n1Cc1ccc(-c2ccccc2-c2nn[nH]n2)cc1 [losartan]
[1]; [6]
  level of ALT in serum: not significantly different
  level of AST in serum: not significantly different
[1]; [7]
  liver/body weight ratio: kept at comparable levels
  spleen/body weight ratio: kept at comparable levels
[1]; losartan 0.5 mg/kg/day, 8 weeks, all groups
  expression of ROCK2 in liver tissue (immunostaining): not substantially changed
[1]; [8]
  changes in the lobular architecture of liver: effectively alleviated
  fibrotic area of liver tissue (Masson's trichrome staining): significantly decreased
[1]; losartan 0.5 mg/kg/day, 8 weeks, compared to Sham group
  percentage of apoptotic cells in liver tissue (TUNEL staining): not significantly changed
[1]; losartan 0.5 mg/kg/day, 8 weeks, in contrast to IVCL group
  expression of α-SMA in liver tissue (immunostaining signal intensity): significantly reduced
[1]; [9]
  expression of ROCK1 in liver tissue (immunostaining): significantly reduced
  expression of RhoA in liver tissue (immunostaining): significantly reduced
  expression of p-MLC2 in liver tissue (immunostaining): effectively attenuated
[2]
  expression of ROCK2 (immunohistochemistry): no significant change
  expression of ROCK2 gene (RT-qPCR): no significant change
  formation of actin stress fibers (phalloidin staining for F-actin): effectively reduced
[2]; [10]
  expression of ACTA2 gene (RT-qPCR): significantly decreased
  expression of AT1R gene (RT-qPCR): significantly decreased
  expression of AT1R in the cytoplasm (immunohistochemistry): significantly decreased
  expression of AT1R in the nucleus (immunohistochemistry): significantly decreased
  expression of COL1A1 gene (RT-qPCR): significantly decreased
  expression of ROCK1 (immunohistochemistry): significantly decreased
  expression of ROCK1 gene (RT-qPCR): significantly decreased
  expression of RhoA (immunohistochemistry): significantly decreased
  expression of RhoA gene (RT-qPCR): significantly decreased
  expression of TGF-β1 (immunohistochemistry): significantly decreased
  expression of TGFB1 gene (RT-qPCR): significantly decreased
  expression of p-MLC2 (immunohistochemistry): significantly decreased
  expression of type 1 collagen (immunohistochemistry): significantly decreased
  expression of α-SMA (immunohistochemistry): significantly decreased
[3]; high-dose losartan 3 mg/kg/day in drinking water
  body weight: No significant change
[3]; high-dose losartan 3 mg/kg/day
  level of BUN in serum: significantly decreased
  level of CRE in serum: significantly decreased
  swelling of the left kidneys (hydronephrosis): significantly inhibited
  fibrosis area of kidney (Masson's trichrome staining): significant decreasing
[3]; low-dose losartan 1 mg/kg/day in drinking water
  body weight: No significant change
[3]; low-dose losartan 1 mg/kg/day
  level of BUN in serum: significantly decreased
  level of CRE in serum: significantly decreased
  swelling of the left kidneys (hydronephrosis): significantly inhibited
  fibrosis area of kidney (Masson's trichrome staining): significant decreasing
[4]
  acute lung injury caused by mechanical stimulation: effectively relieves
[5]
  liver fibrosis caused by non-alcoholic steatohepatitis: mitigates
